# Test results taken from the RepoRT retention time repository (doi:10.1007/s11306-011-0298-z).
# Experiment: RP, Waters ACQUITY UPLC HSS T3, 100 × 2.1 mm, 1.8 µm, 30 °C, 0.3 mL/min, estimated dead time 0.73 min; A: water + 0.1% formic acid, pH 3; B: methanol + 0.1% formic acid, pH 3; gradient (min/%B) 0/0 6/0 56/100 60/100
# Conditions: stereoisomer not certain
row,LC retention time [min],SMILES
1,1.41,OCC(O)C(O)CO (racemic)
2,26.6,O=C(O)Cc1c[nH]c2ccccc12 [1H-indol-3-ylacetic acid]
3,7.99,Nc1nc2c(ncn2C2CC(O)C(COP(=O)(O)O)O2)c(=O)[nH]1 (centres undefined) [2'-deoxyguanosine-5'-phosphate]
4,16.9,"O=C(O)c1c(O)cccc1O [2,6-dihydroxybenzoic acid]"
5,1.4,O=C(O)C(=O)C(O)C(O)C(O)CO [2-keto-D-gluconic acid]
6,31.3,C=Cc1ccc(O)c(OC)c1 [2-methoxy-4-vinylphenol]
7,6.5,CCC(C)CN (centres undefined) [2-methylbutylamine]
8,16.2,"O=Cc1ccc(O)c(O)c1 [3,4 dihydroxybenzaldehyde]"
9,14.3,"O=C(O)c1cc(O)cc(O)c1 [3,5-dihydroxybenzoic acid]"
10,34.1,Cc1c[nH]c2ccccc12 [3-methyl indole]
11,17.5,O=C(O)c1ccc(O)cc1 [4-hydroxybenzoic acid]
12,27.8,Cc1cc(=O)oc2cc(O)ccc12 [4-methylumbelliferone]
13,42.9,COc1ccc2oc(-c3ccccc3)cc(=O)c2c1 [6-methoxyflavone]
14,50.4,"CCCCCC(O)C=CC=CCC=CCC=CCCCC(=O)O [15(S)hydroxy-(5Z,8Z,11Z,13E)-eicosatetraenoic acid]"
15,23.9,COc1cc(C(C)=O)ccc1O [Acetovanillone]
16,12.7,O=C(O)CC(Nc1ncnc2c1ncn2C1OC(COP(=O)(O)O)C(O)C1O)C(=O)O (centres undefined) [Adenylosuccinic acid]
17,59.5,CCCCCCCCCCCCCCCCCC(=O)OCCCC [Butyl stearate]
18,21.4,OCC1OC(OC2C(Oc3cc4c(O)cc(O)cc4[o+]c3-c3ccc(O)c(O)c3)OC(CO)C(O)C2O)C(O)C(O)C1O (centres undefined) [Cyanidin 3-sophoroside]
19,16.1,OCc1ccccc1OC1OC(CO)C(O)C(O)C1O (stereo not drawn) [D(-)-Salicin]
20,1.4,O=C(CO)C(O)C(O)C(O)CO (stereo not drawn) [D(-)fructose]
21,14.3,CC(C)(CO)C(O)C(=O)NCCC(=O)O [D-pantothenic acid]
22,20.7,Cc1cc2nc3c(=O)[nH]c(=O)nc-3n(CC(O)C(O)C(O)COP(=O)(O)OP(=O)(O)OCC3OC(n4cnc5c(N)ncnc54)C(O)C3O)c2cc1C (centres undefined) [FAD]
23,21.9,Cc1cc2nc3c(=O)[nH]c(=O)nc-3n(CC(O)C(O)C(O)COP(=O)(O)O)c2cc1C (centres undefined) [FMN]
24,45.6,CC(CCC(=O)O)C1CCC2C3C(O)C(O)C4CC(O)CCC4(C)C3CCC12C (centres undefined) [Hyocholic acid]
25,24.6,O=C(O)C(O)Cc1c[nH]c2ccccc12 (centres undefined) [Indolelactic acid]

row,LC retention time [min],SMILES
1,1.51,O=C(O)[C@H](O)[C@@H](O)C(=O)O [L-(+)-tartaric acid]
2,1.3,NC(=O)CC[C@H](N)C(=O)O [L-Glutamine]
3,59.9,CCCCCCCCC=CCCCCCCCC(=O)OC(COC(=O)CCCCCCCCCCCCCCC)COP(=O)([O-])OCC[N+](C)(C)C [L-a-Phosphatidylcholine]
4,1.4,NC(=O)NCCC[C@H](N)C(=O)O [L-citrulline]
5,1.23,N[C@@H](CS)C(=O)O [L-cysteine]
6,3.4,NC(CCC(=O)NC(CS)C(=O)NCC(=O)O)C(=O)O [L-glutathione]
7,1.29,N[C@@H](CCO)C(=O)O [L-homoserine]
8,4.62,CC[C@H](C)[C@H](N)C(=O)O [L-isoleucine]
9,11,Nc1ccccc1C(=O)CC(N)C(=O)O [L-kynurenine]
10,1.18,NCCCC[C@H](N)C(=O)O [L-lysine]
11,2,O=C(O)C[C@H](O)C(=O)O [L-malic acid]
12,2.8,CSCC[C@H](N)C(=O)O [L-methionine]
13,2.3,CCC[C@H](N)C(=O)O [L-norvaline]
14,1.59,O=C(O)[C@@H]1CCCN1 [L-proline]
15,1.22,N[C@@H](CO)C(=O)O [L-serine]
16,1.3,C[C@@H](O)[C@H](N)C(=O)O [L-threonine]
17,6.08,N[C@@H](Cc1ccc(O)cc1)C(=O)O [L-tyrosine]
18,28.3,CC1OC(Oc2c(-c3cc(O)c(O)c(O)c3)oc3cc(O)cc(O)c3c2=O)C(O)C(O)C1O (centres undefined) [Myricitrin (myricetin 3-O-rhamnoside)]
19,1.49,CC(=O)NC1C(O)OC(CO)C(O)C1O (centres undefined) [N-acetyl-galactosamine]
20,2,O=C1CCC(=O)N1O [N-hydroxysuccinimide]
21,33,Oc1ccc(C2Oc3cc(O)cc4c3C2c2cc(O)cc3c2C(c2cc(O)cc5c2C4C(c2ccc(O)cc2)O5)C(c2ccc(O)cc2)O3)cc1 (centres undefined) [a-viniferin]
22,8,CC(=O)NC(CS)C(=O)O (centres undefined) [acetylcysteine]
23,2.33,Nc1ncnc2nc[nH]c12 [adenine*]
24,10.9,Nc1ncnc2c1ncn2C1OC(CO)C(O)C1OP(=O)(O)O (centres undefined) [adenosine 2'-monophosphate]

# The next lines start with the molecule.
row,SMILES,LC retention time [min]
1,Oc1ccc(C=Cc2cc(O)cc3c2C(c2cc(O)cc(O)c2)C(c2ccc(O)cc2)O3)cc1 (centres undefined),33.5
2,OCC1OC(Oc2ccccc2)C(O)C(O)C1O (centres undefined),16.4
3,Nc1ncnc2c1ncn2C1OC(COP(=O)(O)O)C(O)C1O (centres undefined),4.08
4,CC(C)CCCC(C)C1CCC2C3CC4OC45CC(O)CCC5(C)C3CCC12C (racemic),57.7
5,CC1=CCCC(C)(C)C12CCC(C)O2 (racemic),48.1
6,"O=C(C=Cc1ccc(O)c(O)c1)OC1CC(OC(=O)C=Cc2ccc(O)c(O)c2)(C(=O)O)CC(O)C1O (centres undefined) [1,3 - dicaffeoylquinic acid]",24.9
7,"NCCCN [1,3 diaminopropane]",1
8,"NCCCCN [1,4-diaminobutane]",1.1
9,CC(C)C(=O)OCCOc1ccccc1 [2-phenoxyethyl isobutyrate],40.2
10,O=C1CCCN1 [2-pyrrolidinone],5.9
11,CCOc1cc(C=O)ccc1O [3-ethoxy-4-hydroxybenzaldehyde],27.2
12,CC(O)(CC(=O)O)CC(=O)O [3-hydroxy-3-methyl glutaric acid],7.04
13,O=Cc1cccc(O)c1 [3-hydroxybenzaldehyd],20.3
14,CC(=O)CCc1ccc(O)cc1 [4-(4-hydroxyphenyl)butan-2-one],24.6
15,Nc1ccc(C(=O)O)cc1 [4-aminobenzoic acid],12.3
16,CN(C)c1ccc(C=CC=O)cc1 [4-dimethylaminocinnamaldehyde],34.5
17,O=c1cc(O)c2ccccc2o1 [4-hydroxycoumarin],24.2
18,Oc1ccc(C=Cc2ccccc2)cc1 [4-stilbenol],41.8
19,O=Cc1ccc(CO)o1 [5-hydroxymethyl-2-furaldehyde],11.9
20,Cc1ccc(C=O)o1 [5-methyl furfural],20.3
21,CC(C)=C1CCC(C)CC1=O [(R)-(+)-pulegone],38.9
22,NC(=O)CCCCC1CCSS1 (stereo not drawn) [Alpha lipoamide],29
23,C[C@@H](O)[C@H](O)[C@H](O)[C@@H](O)C=O [D-(+)-fucose],1.8

row,SMILES,LC retention time [min]
1,OCC1OC(OC2OC(CO)C(O)C(O)C2O)C(O)C(O)C1O [D-(+)-trehalose],1.5
2,O=C[C@H](O)[C@@H](O)[C@@H](O)[C@H](O)C(=O)O [D-(+)galacturonic acid],1.33
3,OCC1OC(O)C(O)C1O [D-(-)-Ribose],1.4
4,CCCCCCCCCCCC=CC=CC=CC=CC=CC(=O)O [Docosapentaenoic acid],54
5,Oc1ccc(C=Cc2cc(O)cc3c2C(c2cc(O)cc4c2C(c2cc(O)cc(O)c2)C(c2ccc(O)cc2)O4)C(c2ccc(O)cc2)O3)cc1 (stereo not drawn) [E-cis-miyabenol C],32.6
6,O=Cc1c[nH]c2ccccc12 [Indole-3-aldehyde],25.1
7,NC(=O)C[C@H](N)C(=O)O [L-asparagine],1.27
8,N[C@@H](CC(=O)O)C(=O)O [L-aspartic acid],1.28
9,N[C@@H](CCSC[C@H](N)C(=O)O)C(=O)O [L-cystathionine],1.21
10,N[C@@H](CCC(=O)O)C(=O)O [L-glutamic acid],1.31
11,N[C@@H](Cc1cnc[nH]1)C(=O)O [L-histidine],1.2
12,CC(C)C[C@H](N)C(=O)O [L-leucine],4.98
13,NCCC[C@H](N)C(=O)O [L-ornithine],1.1
14,N[C@@H](Cc1ccccc1)C(=O)O [L-phenylalanine],11.5
15,N[C@@H](CCCCN[C@@H](CCC(=O)O)C(=O)O)C(=O)O [L-saccharopine],1.38
16,N[C@@H](Cc1c[nH]c2ccccc12)C(=O)O [L-tryptophan],16
17,CC(C)[C@H](N)C(=O)O [L-valine],2.19
18,CCCCCCCCCCCCCCCCCCCCC(=O)OC [Methyl henicosanoate],60.4
19,CC(=O)NC1C(O)CC(O)(C(=O)O)OC1C(O)C(O)CO (centres undefined) [N-Acetyl-neuraminic acid],1.5
20,CC(=O)NC(Cc1ccc(O)cc1)C(=O)O (centres undefined) [N-acetyl tyrosine],17.4
21,N[C@@H](COP(=O)(O)O)C(=O)O [O-phospho-L-serine],1.21
22,CC(C=CC1(O)C(C)=CC(=O)CC1(C)C)=CC(=O)O (centres undefined) [abscisic acid],31.3
